Assay results published in ChEMBL document CHEMBL1145108, “Fragment screening and assembly: a highly efficient approach to a selective and cell active protein tyrosine phosphatase 1B inhibitor” (J Med Chem, 2003).

Legend:
[1] = target: T1, Tyrosine-protein phosphatase non-receptor type 1 (Homo sapiens, UniProt P18031); assay: Dissociation constant against Protein-tyrosine phosphatase 1B receptor was determined
T1 sequence (P18031 whole entry): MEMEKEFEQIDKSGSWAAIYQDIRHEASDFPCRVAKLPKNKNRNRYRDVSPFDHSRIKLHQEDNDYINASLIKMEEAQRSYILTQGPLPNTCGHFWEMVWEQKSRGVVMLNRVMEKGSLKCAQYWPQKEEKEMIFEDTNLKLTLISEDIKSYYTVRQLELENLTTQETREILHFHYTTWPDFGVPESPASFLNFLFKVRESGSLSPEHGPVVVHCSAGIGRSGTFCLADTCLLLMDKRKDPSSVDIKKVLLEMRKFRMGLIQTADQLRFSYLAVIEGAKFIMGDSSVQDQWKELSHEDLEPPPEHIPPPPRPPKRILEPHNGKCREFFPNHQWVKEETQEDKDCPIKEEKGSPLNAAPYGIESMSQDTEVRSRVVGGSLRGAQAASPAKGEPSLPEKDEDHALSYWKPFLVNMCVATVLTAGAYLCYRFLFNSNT

[2] = target: Tyrosine-protein phosphatase non-receptor type 2 (Homo sapiens, UniProt P17706); assay: Inhibitory constant of compound against T cell protein tyrosine phosphatase was determined; assay type: cell-based
[3] = target: T1, Tyrosine-protein phosphatase non-receptor type 1
Description: Binding affinity against protein tyrosine phosphatase PTB1B

Tyrosine-protein phosphatase non-receptor type 2, sequence (P17706 whole entry, looked up): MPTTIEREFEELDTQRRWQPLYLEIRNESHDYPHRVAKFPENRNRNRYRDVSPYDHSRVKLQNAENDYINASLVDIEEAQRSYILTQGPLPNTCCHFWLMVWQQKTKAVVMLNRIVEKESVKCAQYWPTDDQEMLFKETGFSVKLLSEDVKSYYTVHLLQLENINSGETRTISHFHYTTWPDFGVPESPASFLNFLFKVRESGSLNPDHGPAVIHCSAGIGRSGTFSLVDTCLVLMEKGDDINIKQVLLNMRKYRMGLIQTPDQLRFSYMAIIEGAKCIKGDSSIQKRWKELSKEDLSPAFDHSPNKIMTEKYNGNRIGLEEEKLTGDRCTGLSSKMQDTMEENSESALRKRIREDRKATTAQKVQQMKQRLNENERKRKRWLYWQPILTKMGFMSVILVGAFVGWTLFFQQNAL

## O=C(O)c1cc(-c2ccc(Br)cc2)on1
[1]
  Kd: 800 µM

## CCCC(=O)Nc1cccc(-c2cc(C(=O)O)no2)c1
[2]
  Ki: 634 µM
[3]
  Ki: 148 µM
